Assay results reported in patent US20250179073A1, “TRICYCLIC HETEROCYCLE COMPOUNDS AS IAP ANTAGONISTS” (Ascentage Pharma (Suzhou) Co., Ltd., priority 2022, published 2025).

Experiments:
MDA-MB-231 cells = assay: Cell proliferation assay (CellTiter-Glo), MDA-MB-231; type: cell-based; details: 72 h treatment, Celltiter-Glo luminescence
Summary of the method: (§1)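 Compounds tested over ten concentrations ([…]) for 72 h on EVSA-T cells in MEM/10% FBS and MDA-MB-231 cells in RPMI-1640/10% FBS, seeded at 10000/well. Luminescent CellTiter-Glo readout; IC50 fitted after normalisation to controls.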

EVSA-T cells = assay: Cell proliferation assay (CellTiter-Glo), EVSA-T; type: cell-based; details: 72 h treatment, Celltiter-Glo luminescence
Summary of the method: as §1

IC50 (MDA-MB-231 cells; Homo sapiens, MDA-MB-231, 72 h)	IC50 (MDA-MB-231 cells)	Compound	IC50 (EVSA-T cells; Homo sapiens, EVSA-T, 72 h)	IC50 (EVSA-T cells)
17 nM		COCC(COC)n1nc2c(Cc3ccc(F)cc3)cc3c(n2c1=O)C(C)(C)CN3C(=O)CN1C[C@@H](C)NC[C@@H]1CN1CCOC[C@H]1C [Compound 261, 2-(1,3-dimethoxypropan-2-yl)-4-(4-fluorobenzyl)-8,8-dimethyl-6-(2-((2R,5R)-5-methyl-2-(((R)-3-methylmorpholino)methyl)piperazin-1-yl)acetyl)-2,6,7,8-tetrahydro-1H-pyrrolo[2,3-e][1,2,4]triazolo[4,3-a]pyridin-1-one]	3.2 nM	
12.5 nM		C[C@@H]1CN(CC(=O)N2CC(C)(C)c3c2cc(Cc2ccc(F)cc2)c2nn(CC4(O)CCC4)c(=O)n32)[C@@H](CN2CCOC[C@H]2C)CN1 [Compound 262, 4-(4-fluorobenzyl)-2-((1-hydroxycyclobutyl)methyl)-8,8-dimethyl-6-(2-((2R,5R)-5-methyl-2-(((R)-3-methylmorpholino)methyl)piperazin-1-yl)acetyl)-2,6,7,8-tetrahydro-1H-pyrrolo[2,3-e][1,2,4]triazolo[4,3-a]pyridin-1-one]	1.3 nM	
27 nM		C[C@@H]1CN(CC(=O)N2CC(C)(C)c3c2cc(Cc2ccc(F)cc2)c2nn(CC(F)(F)F)c(=O)n32)[C@@H](CN2CCOC[C@H]2C)CN1 [Compound 263, 4-(4-fluorobenzyl)-8,8-dimethyl-6-(2-((2R,5R)-5-methyl-2-(((R)-3-methylmorpholino)methyl)piperazin-1-yl)acetyl)-2-(2,2,2-trifluoroethyl)-2,6,7,8-tetrahydro-1H-pyrrolo[2,3-e][1,2,4]triazolo[4,3-a]pyridin-1-one]	8.2 nM	
15 nM		C[C@@H]1CN(CC(=O)N2CC(C)(C)c3c2cc(Cc2ccc(F)cc2)c2nn(CC(F)F)c(=O)n32)[C@@H](CN2CCOC[C@H]2C)CN1 [Compound 264, 2-(2,2-difluoroethyl)-4-(4-fluorobenzyl)-8,8-dimethyl-6-(2-((2R,5R)-5-methyl-2-(((R)-3-methylmorpholino)methyl)piperazin-1-yl)acetyl)-2,6,7,8-tetrahydro-1H-pyrrolo[2,3-e][1,2,4]triazolo[4,3-a]pyridin-1-one]	4.7 nM	
41 nM		C[C@@H]1CN(CC(=O)N2CC(C)(C)c3c2cc(Cc2ccc(F)cc2)c2nn(CC(C)(C)O)c(=O)n32)[C@@H](CN2CC3CCC(C2)O3)CN1 [Compound 265, 6-(2-((2R,5R)-2-((8-oxa-3-azabicyclo[3.2.1]octan-3-yl)methyl)-5-methylpiperazin-1-yl)acetyl)-4-(4-fluorobenzyl)-2-(2-hydroxy-2-methylpropyl)-8,8-dimethyl-2,6,7,8-tetrahydro-1H-pyrrolo[2,3-e][1,2,4]triazolo[4,3-a]pyridin-1-one]	26.8 nM	
16 nM		C[C@@H]1CN(CC(=O)N2CC(C)(C)c3c2cc(Cc2ccc(F)cc2)c2nn(CC(C)(C)O)c(=O)n32)[C@@H](CN2CCN(CC(F)(F)F)C[C@H]2C)CN1 [Compound 266, 4-(4-fluorobenzyl)-2-(2-hydroxy-2-methylpropyl)-8,8-dim ethyl-6-(2-((2R,5R)-5-methyl-2-(((R)-2-methyl-4-(2,2,2-trifluoroethyl)piperazin-1-yl)methyl)piperazin-1-yl)acetyl)-2,6,7,8-tetrahydro-1H-pyrrolo[2,3-e][1,2,4]triazolo[4,3-a]pyridin-1-one]	4.9 nM	
34 nM		C[C@@H]1CN(CC(=O)N2CC(C)(C)c3c2cc(Cc2ccc(F)cc2)c2nn(CC(C)(C)O)c(=O)n32)[C@@H](CN2CCN(C3COC3)C[C@H]2C)CN1 [Compound 267, 4-(4-fluorobenzyl)-2-(2-hydroxy-2-methylpropyl)-8,8-dimethyl-6-(2-((2R,5R)-5-methyl-2-(((R)-2-methyl-4-(oxetan-3-yl)piperazin-1-yl)methyl)piperazin-1-yl)acetyl)-2,6,7,8-tetrahydro-1H-pyrrolo[2,3-e][1,2,4]triazolo[4,3-a]pyridin-1-one]	19.6 nM	
10 nM		CC(O)Cn1nc2c(Cc3ccc(F)cc3)cc3c(n2c1=O)C(C)(C)CN3C(=O)CN1C[C@@H](C)NC[C@@H]1CN1CCOC[C@H]1C (stereo partly drawn) [Compound 269, 4-(4-fluorobenzyl)-2-(2-hydroxypropyl)-8,8-dimethyl-6-(2-((2R,5R)-5-methyl-2-(((R)-3-methylmorpholino)methyl)piperazin-1-yl)acetyl)-2,6,7,8-tetrahydro-1H-pyrrolo[2,3-e][1,2,4]triazolo[4,3-a]pyridin-1-one]	5.1 nM	
51 nM		C[C@@H]1CN(CC(=O)N2CC(C)(C)c3c2cc(Cc2ccc(F)cc2)c2nn(CC(O)C4CC4)c(=O)n32)[C@@H](CN2CCOC[C@H]2C)CN1 (stereo partly drawn) [Compound 270, 2-(2-cyclopropyl-2-hydroxyethyl)-4-(4-fluorobenzyl)-8,8-dimethyl-6-(2-((2R,5R)-5-methyl-2-(((R)-3-methylmorpholino)methyl)piperazin-1-yl)acetyl)-2,6,7,8-tetrahydro-1H-pyrrolo[2,3-e][1,2,4]triazolo[4,3-a]pyridin-1-one]	11.5 nM	
22 nM		C[C@@H]1CN(CC(=O)N2CC(C)(C)c3c2cc(Cc2ccc(F)cc2)c2nn(C4CC(O)C4)c(=O)n32)[C@@H](CN2CCOC[C@H]2C)CN1 (stereo partly drawn) [Compound 271, 4-(4-fluorobenzyl)-2-(3-hydroxycyclobutyl)-8,8-dimethyl-6-(2-((2R,5R)-5-methyl-2-(((R)-3-methylmorpholino)methyl)piperazin-1-yl)acetyl)-2,6,7,8-tetrahydro-1H-pyrrolo[2,3-e][1,2,4]triazolo[4,3-a]pyridin-1-one]	2.2 nM	
21 nM		C[C@@H]1CN(CC(=O)N2CC(C)(C)c3c2cc(Cc2ccc(F)cc2)c2nn(C4CC(C)(O)C4)c(=O)n32)[C@@H](CN2CCOC[C@H]2C)CN1 (stereo partly drawn) [Compound 272, 4-(4-fluorobenzyl)-2-(3-hydroxy-3-methylcyclobutyl)-8,8-dimethyl-6-(2-((2R,5R)-5-methyl-2-(((R)-3-methylmorpholino)methyl)piperazin-1-yl)acetyl)-2,6,7,8-tetrahydro-1H-pyrrolo[2,3-e][1,2,4]triazolo[4,3-a]pyridin-1-one]	2 nM	
23 nM		C[C@@H]1CN(CC(=O)N2CC(C)(C)c3c2cc(Cc2ccc(F)cc2)c2nn(C4CCC4O)c(=O)n32)[C@@H](CN2CCOC[C@H]2C)CN1 (stereo partly drawn) [Compound 273A, 4-(4-fluorobenzyl)-2-(2-hydroxycyclobutyl)-8,8-dimethyl-6-(2-((2R,5R)-5-methyl-2-(((R)-3-methylmorpholino)methyl)piperazin-1-yl)acetyl)-2,6,7,8-tetrahydro-1H-pyrrolo[2,3-e][1,2,4]triazolo[4,3-a]pyridin-1-one]	1.24 nM	
	14 nM	C[C@@H]1CN(CC(=O)N2CC(C)(C)c3c2cc(Cc2ccc(F)cc2)c2nn(C4CCC4O)c(=O)n32)[C@@H](CN2CCOC[C@H]2C)CN1 (stereo partly drawn) [Compound 273B, 4-(4-fluorobenzyl)-2-(2-hydroxycyclobutyl)-8,8-dimethyl-6-(2-((2R,5R)-5-methyl-2-(((R)-3-methylmorpholino)methyl)piperazin-1-yl)acetyl)-2,6,7,8-tetrahydro-1H-pyrrolo[2,3-e][1,2,4]triazolo[4,3-a]pyridin-1-one]		1.7 nM
9 nM		C[C@@H]1CN(CC(=O)N2CC(C)(C)c3c2cc(Cc2ccc(F)cc2F)c2nn(C(C)(C)CO)c(=O)n32)[C@@H](CN2CCOC[C@H]2C)CN1 [Compound 275, 4-(2,4-difluorobenzyl)-2-(1-hydroxy-2-methylpropan-2-yl)-8,8-dimethyl-6-(2-((2R,5R)-5-methyl-2-(((R)-3-methylmorpholino)methyl)piperazin-1-yl)acetyl)-2,6,7,8-tetrahydro-1H-pyrrolo[2,3-e][1,2,4]triazolo[4,3-a]pyridin-1-one]	3.1 nM	
39 nM		C[C@@H]1CN(CC(=O)N2CC(C)(C)c3c2cc(Cc2ccc(F)cc2)c2nn(CC(C)(C)O)c(=O)n32)[C@@H](CN2CCOCC23CC3)CN1 [Compound 278, 6-(2-((2R,5R)-2-((7-oxa-4-azaspiro[2.5]octan-4-yl)methyl)-5-methylpiperazin-1-yl)acetyl)-4-(4-fluorobenzyl)-2-(2-hydroxy-2-methylpropyl)-8,8-dimethyl-2,6,7,8-tetrahydro-1H-pyrrolo[2,3-e][1,2,4]triazolo[4,3-a]pyridin-1-one]	9.7 nM	
26 nM		C[C@@H]1CN(CC(=O)N2CC(C)(C)c3c2cc(Cc2ccc(F)cc2F)c2nn(C[C@H]4COCCO4)c(=O)n32)[C@@H](CN2CCOC[C@H]2C)CN1 [Compound 285, 2-(((S)-1,4-dioxan-2-yl)methyl)-4-(2,4-difluorobenzyl)-8,8-dimethyl-6-(2-((2R,5R)-5-methyl-2-(((R)-3-methylmorpholino)methyl)piperazin-1-yl)acetyl)-2,6,7,8-tetrahydro-1H-pyrrolo[2,3-e][1,2,4]triazolo[4,3-a]pyridin-1-one]	4.6 nM	
530 nM		C[C@@H]1CN(CC(=O)N2CC(C)(C)c3c2cc(Cc2ccc(F)cc2)c2nncn32)[C@@H](CN2CCOC[C@H]2C)CN1 [Example 9, 1-(4-(4-fluorobenzyl)-8,8-dimethyl-7,8-dihydro-6H-pyrrolo[2,3-e][1,2,4]triazolo[4,3-a]pyridin-6-yl)-2-((2R,5R)-5-methyl-2-(((R)-3-methylmorpholino)methyl)piperazin-1-yl)ethan-1-one]	18 nM	
350 nM		Cc1nnc2c(Cc3ccc(F)cc3)cc3c(n12)C(C)(C)CN3C(=O)CN1C[C@@H](C)NC[C@@H]1CN1CCOC[C@H]1C [Example 10, 1-(4-(4-fluorobenzyl)-1,8,8-trimethyl-7,8-dihydro-6H-pyrrolo[2,3-e][1,2,4]triazolo[4,3-a]pyridin-6-yl)-2-((2R,5R)-5-methyl-2-(((R)-3-methylmorpholino)methyl)piperazin-1-yl)ethan-1-one]	27 nM	
